One assay addresses T1, KDM2A (Homo sapiens, UniProt Q9Y2K7).
T1 construct: isolated enzyme
T1 sequence (Q9Y2K7 1-517 limits assumed): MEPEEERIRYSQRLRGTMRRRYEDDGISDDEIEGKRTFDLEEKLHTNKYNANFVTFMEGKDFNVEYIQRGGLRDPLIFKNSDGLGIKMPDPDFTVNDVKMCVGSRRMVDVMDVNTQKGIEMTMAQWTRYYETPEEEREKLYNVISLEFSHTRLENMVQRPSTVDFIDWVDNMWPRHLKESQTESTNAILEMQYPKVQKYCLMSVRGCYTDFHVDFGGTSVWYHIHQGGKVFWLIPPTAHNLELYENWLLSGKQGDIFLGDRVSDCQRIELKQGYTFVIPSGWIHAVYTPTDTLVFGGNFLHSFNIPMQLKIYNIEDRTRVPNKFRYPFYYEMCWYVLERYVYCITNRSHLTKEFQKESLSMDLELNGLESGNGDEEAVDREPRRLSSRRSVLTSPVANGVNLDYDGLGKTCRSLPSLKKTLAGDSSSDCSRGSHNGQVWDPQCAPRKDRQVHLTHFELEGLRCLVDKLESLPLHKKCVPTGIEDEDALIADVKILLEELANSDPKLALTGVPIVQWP
As to the kind of experiment: demethylase activity assay (RapidFire MS / AlphaScreen). Type of assay: biochemical. As to conditions: not competitive with 2-OG or peptide substrate. (In general: Bead proximity is the source of the signal in Alpha formats.)

Another assay concerns the target JARID1C (KDM5C) (Homo sapiens, UniProt P41229). Nature of the assay: biochemical. Further details: AlphaScreen histone demethylase activity assay. The conditions noted are these: read-out: KDM5C pIC50 (converted).

Sequence of JARID1C (KDM5C) (P41229 whole entry): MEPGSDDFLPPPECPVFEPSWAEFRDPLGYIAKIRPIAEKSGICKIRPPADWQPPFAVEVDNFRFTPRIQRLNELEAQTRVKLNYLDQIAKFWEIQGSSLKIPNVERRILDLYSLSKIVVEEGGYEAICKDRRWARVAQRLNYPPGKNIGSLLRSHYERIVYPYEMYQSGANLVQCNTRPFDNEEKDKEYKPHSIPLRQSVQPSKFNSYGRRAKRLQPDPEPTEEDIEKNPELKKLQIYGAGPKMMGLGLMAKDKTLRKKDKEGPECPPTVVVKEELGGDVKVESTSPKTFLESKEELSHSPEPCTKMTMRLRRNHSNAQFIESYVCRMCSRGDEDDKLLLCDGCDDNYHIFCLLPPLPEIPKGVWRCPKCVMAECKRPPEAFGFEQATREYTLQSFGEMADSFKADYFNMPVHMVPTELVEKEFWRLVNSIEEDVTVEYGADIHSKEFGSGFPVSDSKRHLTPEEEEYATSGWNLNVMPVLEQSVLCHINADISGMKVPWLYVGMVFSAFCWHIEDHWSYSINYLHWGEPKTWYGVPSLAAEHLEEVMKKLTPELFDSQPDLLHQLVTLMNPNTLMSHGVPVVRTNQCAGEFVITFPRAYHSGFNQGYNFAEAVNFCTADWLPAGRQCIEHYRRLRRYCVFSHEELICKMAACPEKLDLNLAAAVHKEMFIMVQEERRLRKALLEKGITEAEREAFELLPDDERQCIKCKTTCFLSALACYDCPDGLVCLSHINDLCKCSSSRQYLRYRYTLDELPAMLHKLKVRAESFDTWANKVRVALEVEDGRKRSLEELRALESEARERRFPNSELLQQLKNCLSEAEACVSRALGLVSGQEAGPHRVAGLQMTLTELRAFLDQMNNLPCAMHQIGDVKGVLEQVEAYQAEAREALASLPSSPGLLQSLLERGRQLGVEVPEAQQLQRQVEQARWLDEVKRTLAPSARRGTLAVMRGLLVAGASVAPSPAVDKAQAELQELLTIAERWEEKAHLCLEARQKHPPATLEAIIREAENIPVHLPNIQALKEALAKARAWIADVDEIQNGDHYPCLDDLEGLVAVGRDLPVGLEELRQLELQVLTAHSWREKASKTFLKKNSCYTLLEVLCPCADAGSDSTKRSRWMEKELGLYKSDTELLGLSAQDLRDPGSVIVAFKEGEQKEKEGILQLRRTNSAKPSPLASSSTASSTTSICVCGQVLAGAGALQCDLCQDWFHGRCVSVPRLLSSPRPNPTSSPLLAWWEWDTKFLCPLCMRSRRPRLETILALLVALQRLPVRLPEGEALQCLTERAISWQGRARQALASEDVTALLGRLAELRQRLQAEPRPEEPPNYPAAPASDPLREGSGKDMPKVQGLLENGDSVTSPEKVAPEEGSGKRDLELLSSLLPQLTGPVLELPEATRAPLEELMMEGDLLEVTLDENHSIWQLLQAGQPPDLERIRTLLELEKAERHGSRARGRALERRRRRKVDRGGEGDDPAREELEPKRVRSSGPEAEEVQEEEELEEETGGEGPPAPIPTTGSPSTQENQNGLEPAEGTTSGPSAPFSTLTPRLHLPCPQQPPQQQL

For the molecule `CC(=O)N1c2ccccc2[C@@](C#N)(c2ccccc2)[C@@H]1c1cncc(CCCCCCCN2CCCC2)c1` [(S,S)-6], the IC50 at KDM2A is 0.16 µM; on JARID1C (KDM5C), 15.7 µM.

Source of the values: PMC5725665, “Discovery of a Highly Selective Cell‐Active Inhibitor of the Histone Lysine Demethylases KDM2/7” (Angewandte Chemie (International Ed. in English), 2017).
